The values below come from patent publication US11230543B2, “Biaryl monobactam compounds and methods of use thereof for the treatment of bacterial infections” (priority 2015, dated 2022).

Test [1] has as its system Klebsiella pneumoniae expressing KPC-1 (CL6569). Briefly: Antibiotic activity: growth inhibitory concentration (OD600), Klebsiella pneumoniae CL6569. It is filed as cell-based. Conditions: lowest concentration inhibiting 95% of bacterial growth; in the presence of β lactamase inhibitor Relebactam 4 μg/mL; 35±2° C. for 22 hours; tested range 100 μM to 0.098 μM. The essentials: (§1)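 Clinical strains at ~2×10^5 CFU/mL in cation-adjusted Mueller-Hinton II broth, with relebactam at 4 μg/mL final; compounds 100 μM to 0.098 μM final. After 22 hours at 35±2° C, OD600 read; MITC95 is lowest concentration giving 95% growth inhibition.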

Test [2] has as its system Pseudomonas aeruginosa expressing AmpC (CL5701). Nature of the test: Antibiotic activity: growth inhibitory concentration (OD600), Pseudomonas aeruginosa CL5701. Type of test: cell-based. The note with it: lowest concentration inhibiting 95% of bacterial growth; in the presence of β lactamase inhibitor Relebactam 4 μg/mL; 35±2° C. for 22 hours; tested range 100 μM to 0.098 μM. The essentials: as §1

Counter-ions that a name gives are not always drawn.

As to `C[n+]1cc(-c2ccc(OC[C@H](O/N=C(\C(=O)N[C@@H]3C(=O)N(OS(=O)(=O)[O-])C3(C)C)c3csc(N)n3)C(=O)O)cc2)ccc1NCCN` [Example 66, (S)-3-((Z)-2-(((S)-2-(4-(6-((2-aminoethyl)amino)-1-methylpyridin-1-ium-3-yl)phenoxy)-1-carboxyethoxy)imino)-2-(2-aminothiazol-4-yl)acetamido)-2,2-dimethyl-4-oxoazetidin-1-yl sulfate], the “KP_CL6569 MITC95” value in test [1] turned out to be 0.2135 µM. Further, in test [2], the “PA_CL5701 MITC95” value was 1.708 µM.

As to `CC1(C)[C@H](NC(=O)/C(=N\O[C@@H](COc2cnc(-n3cc[n+](CCCN)c3)nc2)C(=O)O)c2csc(N)n2)C(=O)N1OS(=O)(=O)[O-]` [Example 111, (S)-3-((Z)-2-(((S)-2-((2-(3-(3-aminopropyl)-1H-imidazol-3-ium-1-yl)pyrimidin-5-yl)oxy)-1-carboxyethoxy)imino)-2-(2-aminothiazol-4-yl)acetamido)-2,2-dimethyl-4-oxoazetidin-1-yl sulfate], the “KP_CL6569 MITC95” value in test [1] came out at 1.563 µM. For the same molecule, in test [2], the “PA_CL5701 MITC95” value was determined as 50 µM.

As for `C[n+]1cc(-c2ccc(OC[C@H](O/N=C(\C(=O)N[C@@H]3C(=O)N(OS(=O)(=O)[O-])C3(C)C)c3csc(N)n3)C(=O)O)cc2Cl)cn1CCCN` [Example 38, (S)-3-((Z)-2-(((S)-2-(4-(1-(3-aminopropyl)-2-methyl-1H-pyrazol-2-ium-4-yl)-3-chlorophenoxy)-1-carboxyethoxy)imino)-2-(2-aminothiazol-4-yl)acetamido)-2,2-dimethyl-4-oxoazetidin-1-yl sulfate], the “KP_CL6569 MITC95” value in test [1] came to 0.3906 µM. The “PA_CL5701 MITC95” value in test [2] was 6.25 µM.

Turning to `CC(CN)Nc1ccc(-c2ccc(OC[C@H](O/N=C(\C(=O)N[C@@H]3C(=O)N(OS(=O)(=O)[O-])C3(C)C)c3csc(N)n3)C(=O)O)cc2)c[n+]1C` (stereo partly drawn) [Example 76, (3S)-3-((Z)-2-(((1S)-2-(4-(6-((1-aminopropan-2-yl)amino)-1-methylpyridin-1-ium-3-yl)phenoxy)-1-carboxyethoxy)imino)-2-(2-aminothiazol-4-yl)acetamido)-2,2-dimethyl-4-oxoazetidin-1-yl sulfate], in test [1], the “KP_CL6569 MITC95” value was 0.1953 µM. For the same molecule, in test [2], the “PA_CL5701 MITC95” value stood at 3.125 µM.

Consider `C[n+]1cc(-c2ccc(OC[C@H](O/N=C(/C(=O)N[C@@H]3C(=O)N(OS(=O)(=O)[O-])C3(C)C)c3csc(N)n3)C(=O)O)cc2)cn1CCCNC[C@H](O)CO` [Example 101, (S)-3-((E)-2-(2-aminothiazol-4-yl)-2-(((S)-1-carboxy-2-(4-(1-(3-(((S)-2,3-dihydroxypropyl)amino)propyl)-2-methyl-1H-pyrazol-2-ium-4-yl)phenoxy)ethoxy)imino)acetamido)-2,2-dimethyl-4-oxoazetidin-1-yl sulfate], for which the “KP_CL6569 MITC95” value in test [1] was 0.7813 µM. Also, the “PA_CL5701 MITC95” value in test [2] is 12.5 µM.

`Cn1c(-c2ccc(OC[C@H](O/N=C(\C(=O)N[C@@H]3C(=O)N(OS(=O)(=O)O)C3(C)C)c3csc(N)n3)C(=O)O)cc2)cn(CC(CN)CN)c1=N` [Example 55, (S)-3-(4-(1-(3-amino-2-(aminomethyl)propyl)-2-imino-3-methyl-2,3-dihydro-1H-imidazol-4-yl)phenoxy)-2-((((Z)-1-(2-aminothiazol-4-yl)-2-(((S)-2,2-dimethyl-4-oxo-1-(sulfooxy)azetidin-3-yl)amino)-2-oxoethylidene)amino)oxy)propanoic acid]: the “KP_CL6569 MITC95” value in test [1] came to 0.1953 µM. In addition, the “PA_CL5701 MITC95” value in test [2] is 1.563 µM.

Regarding `CC1(C)[C@H](NC(=O)/C(=N\O[C@@](C)(COc2ccc(-n3cc[n+](CCCN)c3)nc2)C(=O)O)c2csc(N)n2)C(=O)N1OS(=O)(=O)[O-]` [Example 113, (S)-3-((Z)-2-((((S)-1-((6-(3-(3-aminopropyl)-1H-imidazol-3-ium-1-yl)pyridin-3-yloxy)-2-carboxypropan-2-yl)oxy)imino)-2-(2-aminothiazol-4-yl)acetamido)-2,2-dimethyl-4-oxoazetidin-1-yl sulfate], the “KP_CL6569 MITC95” value in test [1] turned out to be 0.7813 µM. The “PA_CL5701 MITC95” value in test [2] was determined as 12.5 µM.

Consider `C[n+]1cc(-c2ccc(OC[C@H](O/N=C(\C(=O)N[C@@H]3C(=O)N(OS(=O)(=O)O)C3(C)C)c3csc(N)n3)C(=O)O)cc2F)cn1CCCN` [Example 24, (S)-3-((Z)-2-(((S)-2-(4-(1-(3-aminopropyl)-2-methyl-1H-pyrazol-2-ium-4-yl)-3-fluorophenoxy)-1-carboxyethoxy)imino)-2-(2-aminothiazol-4-yl)acetamido)-2,2-dimethyl-4-oxoazetidin-1-yl sulfate], for which the “KP_CL6569 MITC95” value in test [1] was 0.3906 µM. In addition, in test [2], the “PA_CL5701 MITC95” value is 3.125 µM.

For the molecule `CC1(C)[C@H](NC(=O)/C(=N\O[C@@H](COc2ccc(-n3cc[n+](CCCN)c3)nc2)C(=O)O)c2csc(N)n2)C(=O)N1OS(=O)(=O)[O-]` [Example 112, (S)-3-((Z)-2-(((S)-2-((6-(3-(3-aminopropyl)-1H-imidazol-3-ium-1-yl)pyridin-3-yl)oxy)-1-carboxyethoxy)imino)-2-(2-aminothiazol-4-yl)acetamido)-2,2-dimethyl-4-oxoazetidin-1-yl sulfate], the “KP_CL6569 MITC95” value in test [1] was determined as 0.7813 µM. The “PA_CL5701 MITC95” value in test [2] was 10.42 µM.

For the molecule `CN(CC(O/N=C(\C(=O)N[C@@H]1C(=O)N(OS(=O)(=O)[O-])C1(C)C)c1csc(N)n1)C(=O)O)c1ccc(-c2cn(CCCN)[n+](C)c2)cc1` (stereo partly drawn) [Example 92, (3S)-3-(2-((2-((4-(1-(3-aminopropyl)-2-methyl-1H-pyrazol-2-ium-4-yl)phenyl)(methyl)amino)-1-carboxyethoxy)imino)-2-(2-aminothiazol-4-yl)acetamido)-2,2-dimethyl-4-oxoazetidin-1-yl sulfate], the “KP_CL6569 MITC95” value in test [1] is 6.25 µM. Moreover, the “PA_CL5701 MITC95” value in test [2] turned out to be 100 µM.

On to `C[n+]1cc(OC[C@H](O/N=C(\C(=O)N[C@@H]2C(=O)N(OS(=O)(=O)O)C2(C)C)c2csc(N)n2)C(=O)O)ccc1-c1cnn(CCCN)c1.O=C([O-])C(F)(F)F` [Example 26, 2-(1-(3-aminopropyl)-1H-pyrazol-4-yl)-5-((S)-2-((((Z)-1-(2-aminothiazol-4-yl)-2-(((S)-2,2-dimethyl-4-oxo-1-(sulfooxy)azetidin-3-yl)amino)-2-oxo-ethylidene)amino)oxy)-2-carboxyethoxy)-1-methylpyridin-1-ium 2,2,2-trifluoroacetate], for which, in test [1], the “KP_CL6569 MITC95” value amounted to 1.563 µM. Besides, the “PA_CL5701 MITC95” value in test [2] was determined as 50 µM.

As to `CC1(C)[C@H](NC(=O)/C(=N\O[C@@H](COc2ccc(-c3cn(CCCN)[n+](C[C@@H]4CCNC4)c3)cc2)C(=O)O)c2csc(N)n2)C(=O)N1OS(=O)(=O)[O-]` [Example 53, (S)-3-((Z)-2-(((S)-2-(4-(1-(3-aminopropyl)-2-(((R)-pyrrolidin-3-yl)methyl)-1H-pyrazol-2-ium-4-yl)phenoxy)-1-carboxyethoxy)imino)-2-(2-aminothiazol-4-yl)acetamido)-2,2-dimethyl-4-oxoazetidin-1-yl sulfate], in test [1], the “KP_CL6569 MITC95” value came out at 0.09766 µM. Also, the “PA_CL5701 MITC95” value in test [2] was determined as 1.563 µM.

With `C[n+]1cc(-c2ccc(OC[C@H](O/N=C(\C(=O)N[C@@H]3C(=O)N(OS(=O)(=O)[O-])C3(C)C)c3csc(N)n3)C(=O)O)nn2)cn1CCCN` [Example 106, (S)-3-((Z)-2-(((S)-2-((6-(1-(3-aminopropyl)-2-methyl-1H-pyrazol-2-ium-4-yl)pyridazin-3-yl)oxy)-1-carboxyethoxy)imino)-2-(2-aminothiazol-4-yl)acetamido)-2,2-dimethyl-4-oxoazetidin-1-yl sulfate], the “KP_CL6569 MITC95” value in test [1] was found to be 50 µM. The “PA_CL5701 MITC95” value in test [2] was 100 µM.

In the case of `C[n+]1cc(-c2ccc(OCC(O/N=C(\C(=O)N[C@@H]3C(=O)N(OS(=O)(=O)O)C3(C)C)c3csc(N)n3)P(=O)(O)O)cc2)cn1CCCN` (stereo partly drawn) [Example 40, (3S)-3-((Z)-2-((2-(4-(1-(3-aminopropyl)-2-methyl-1H-pyrazol-2-ium-4-yl)phenoxy)-1-phosphonoethoxy)imino)-2-(2-aminothiazol-4-yl)acetamido)-2,2-dimethyl-4-oxoazetidin-1-yl sulfate], the “KP_CL6569 MITC95” value in test [1] came out at 3.125 µM. Moreover, in test [2], the “PA_CL5701 MITC95” value worked out at 50 µM.

On to `C[n+]1cc(-c2ccc(OC[C@H](O/N=C(\C(=O)N[C@@H]3C(=O)N(OS(=O)(=O)O)C3(C)C)c3csc(N)n3)C(=O)O)c(F)c2)cn1CCCN` [Example 15, 1-(3-aminopropyl)-4-(4-((S)-2-((((Z)-1-(2-aminothiazol-4-yl)-2-(((S)-2,2-dimethyl-4-oxo-1-(sulfooxy)azetidin-3-yl)amino)-2-oxo-ethylidene)amino)oxy)-2-carboxyethoxy)-3-fluorophenyl)-2-methyl-1H-pyrazol-2-ium, TFA salt (1:1)], for which the “KP_CL6569 MITC95” value in test [1] came to 0.3906 µM. The “PA_CL5701 MITC95” value in test [2] came out at 6.25 µM.

Consider `CC1(C)[C@H](NC(=O)/C(=N\O[C@@H](COc2ccc(-c3cn(CCCN)[n+](CC4(F)CNC4)c3)cc2)C(=O)O)c2csc(N)n2)C(=O)N1OS(=O)(=O)[O-]` [Example 119, (S)-3-((Z)-2-(((S)-2-(4-(1-(3-aminopropyl)-2-((3-fluoroazetidin-3-yl)methyl)-1H-pyrazol-2-ium-4-yl)phenoxy)-1-carboxyethoxy)imino)-2-(2-aminothiazol-4-yl)acetamido)-2,2-dimethyl-4-oxoazetidin-1-yl sulfate], for which, in test [1], the “KP_CL6569 MITC95” value worked out at 0.3906 µM. The “PA_CL5701 MITC95” value in test [2] came to 6.25 µM.

As to `C[n+]1cc(-c2ccc(OC[C@@H](CO)O/N=C(\C(=O)N[C@@H]3C(=O)N(OS(=O)(=O)O)C3(C)C)c3csc(N)n3)cc2)ccc1NCCN` [Example 89, (S)-3-((Z)-2-((((R)-1-(4-(6-((2-aminoethyl)amino)-1-methylpyridin-1-ium-3-yl)phenoxy)-3-hydroxypropan-2-yl)oxy)imino)-2-(2-aminothiazol-4-yl)acetamido)-2,2-dimethyl-4-oxoazetidin-1-yl sulfate], the “KP_CL6569 MITC95” value in test [1] came to 1.563 µM. Also, the “PA_CL5701 MITC95” value in test [2] came out at 50 µM.
